Where a name gives a salt, the structure may show the parent alone. Read-outs that look alike come from different tables or passages of the source.
How the values were obtained:
Jurkat clone E6.1 cells = experiment: Antigen-induced calcium flux in anti-CD3 stimulated Jurkat cells (Fura 2AM); assay type: cell-based; details: anti-CD3 mAb stimulated Jurkat clone E6.1 cells; for inhibition at 20 µM: Homo sapiens
From the text: Elevation of cytoplasmic calcium concentration is a common and crucial event which follows the activation of many types of cell surface receptors. Increases in intracellular calcium that occur following agonist activation of inositol lipid hydrolysis are the results of calcium release from the endoplasmic reticulum and the influx of calcium through the plasma membrane. Increases in cytosolic calcium concentration are involved in many important cellular responses in the inflammatory process including adhesion, motility, gene expression, proliferation, and degranulation. Changes in intracellular calcium concentrations can affect both short and long term cellular responses. An assay method to evaluate a test compound's impact on calcium flux is provided as follows.
The resulting supernatants are discarded and each pellet is washed in 10 mL HBSS. Cell suspensions are accumulated and centrifuged for 5 minutes at 900 RPM to form a cell pellet. The resulting supernatant is discarded and the pellet is resuspended in HBSS at 1×10^7cells/mL. The cell suspension is transferred to a 20 mm petri dish and incubated at 37° C., 5% CO2 for 20 minutes.
One volume of Fura 2AM is mixed to one volume of detergent Pluronic F127. Cells are labeled with 4 μL of probe solution to each mL of cell suspension. The petri dish is wrapped in aluminum foil to protect from light and placed on a plate shaker for 30 minutes at room temperature.
The following steps are done in the laminar flow hood with the fluorescent lights turned off. The petri dish is removed from the shaker and the labeled cell suspension is transferred to a 15 mL conical tube and washed twice with HBSS as above. The cell pellet is resuspended in 12 mL HBSS and left wrapped in foil for 30 minutes at room temperature. The labeled cell suspension is aliquoted (100 μL/well) into a Dynex 96 well white opaque tissue culture plate. […] Selected compounds were tested for dose related activity. Test samples and activator (anti-CD3 mAb at final concentration of 4 μg/mL, PharMingen) are added manually (50 μL), such that the minimum time to acquire the first data point after stimulation is approximately 30 seconds. The calcium influx response to anti-CD3 mAb is measured as an “end point” assay. The entire plate is read in 100 seconds using a kinetic of 1 second per well.
The plate is read before the addition of anti-CD3 to monitor non-specific effect of samples/drugs. Fluorescence emission is measured at 510 nm with excitation alternating between 340 and 380 every second using an excitation/emission filter pair. Data from these dual wavelengths are represented as a ratio of 2 excitations wavelengths. This ratio is independent of intracellular dye and cell concentrations, enabling real comparison between experiments.

[1] = test system: sensitized Brown Norway rats; experiment: Ovalbumin-induced accumulation of inflammatory cells in lung lavage fluid (allergen-induced lung inflammation); assay type: in vivo, rat; details: p.o., corn oil, lung lavage fluid
Protocol: The ability of a compound to inhibit the allergen-induced accumulation of inflammatory cells such as eosinophils and neutrophils in the lavage fluid obtained from sensitized animals is indicative of that compound's anti-asthma activity. […] The test is conducted as follows.
Male Brown Norway rats are sensitized to ovalbumin by single intraperitoneal injection of 1 mg ovalbumin adsorbed to 100 mg […] (alum) in 1 ml sterile saline (saline control rats receive only sterile saline) on day 1, and allowed to sensitize until day 21. […] Rats are challenged with 0.5% ovalbumin in saline generated using a Devillbis nebulizer for 60 min on day 21.
Forty-eight hrs after challenge, animals are sacrificed with an overdose of intraperitoneally-delivered sodium pentobarbitol and the lungs are lavaged with cold 2×7 ml phosphate buffered saline. The recovered lavage fluid is placed on ice. The bronchoalveolar lavage fluid is centrifuged and the supernatant removed. The pellet is resuspended in phosphate buffered saline at 4° C. Cytospins are prepared and stained for differentiation and enumeration of cell types.
Test compound was administered in 300 μl corn oil (Tables 7 and 8) or water (Table 9), which were used as vehicles. Control animals received 300 μl corn oil or water alone, i.e., no drug. […] A negative value in Table 7, 8, or 9 indicates an exacerbation of the effect over the control animal.

[2] = test system: Rat Mast Cell Line (RBL-2H3); experiment: Antigen-induced release of hexosaminidase from a rat mast cell line (RBL-2H3); assay type: cell-based; details: tested at 0.3, 3, 10 and 30 μM, read-out: Hex IC50
Protocol: The anti-allergic effects of a compound of the present invention was evaluated by measuring its effect on antigen-induced secretion of hexosaminidase from a passively sensitized rat mast cell line. The ability of a test compound to inhibit the release of mast cell granule contents, e.g., histamine and hexosaminidase, is indicative of the anti-allergy and/or anti-asthma activity of the compound. Hexosaminidase is released from the mast cell granule along with histamine and other mediators during antigen challenge. The test is performed as follows.
RBL-2H3 cells are grown in culture and passively sensitized for 1 hour at 37° C. to dinitrophenol (DNP) using anti-human-DNP (IgE). Cells are incubated with test compound for 30 minutes at 37° C. and stimulated with 0.5 μg/ml DNP-HSA (antigen) for 30 minutes. Aliquots of the supernatant are removed and used to measure the amount of hexosaminidase released during challenge with the antigen. The amount of hexosaminidase present in the supernatant is determined colorimetrically by monitoring the enzymatic metabolism of p-nitrophenyl-N-acetyl-β-D-glucosaminide (p-NAG) over a period of 60 minutes at 405 nm. The effect of each test compound is determined as a percentage of the antigen-induced response (minus background release) obtained in the presence of DMSO alone. These values are used to determine the degrees of inhibition of antigen-induced hexosaminidase release from the cells.

[3] = 5 mg/kg/day for 4 days, relative to control animals
[4] = Rattus norvegicus, RBL-2H3, inhibition of antigen (DNP-HSA)-induced hexosaminidase release
[5] = Jurkat, read-out: Calcium (% inhibition at 20 μM), 20 μM

Compound: CCC1(C)CCC2=C1CCC1C2C(O)C(O)C2CC(Nc3ccccc3)CCC21C.Cl (mixture of isomers) [Compound 144]
- Calcium (% inhibition at 20 μM) (Jurkat clone E6.1 cells; 20 μM): 13.0%

Compound: CCC1(C)CCC2=C1CCC1C2C(O)C(O)C2CC(Nc3cccc(C(F)(F)F)c3)CCC21C.Cl (mixture of isomers) [Compound 145]
- Calcium (% inhibition at 20 μM) (Jurkat clone E6.1 cells; 20 μM): −0.2%

Compound: CC=C1CCC2C3C(CC[C@]12C)[C@@]1(C)CCC(N)CC1[C@@H](O)[C@@H]3O (some centres unmarked) [Compound 49]
- % inhibition of eosinophils [1, 3]: 52%

Compound: C=C1CCC2C3C(CC[C@]12C)[C@@]1(C)CCC(N)CC1[C@@H](O)[C@@H]3O (some centres unmarked) [Compound 53]
- % inhibition of eosinophils [1, 3]: 24%

Compound: C=C1CCC2C3C(CC[C@]12C)[C@@]1(C)CCC(N)CC1[C@@H](O)[C@@H]3O (some centres unmarked) [Compound 54]
- IC50 [2, 4]: 16.1 µM

Compound: COC(=O)C=C1CCC2C3C(CC[C@]12C)[C@@]1(C)CCC(N)CC1[C@@H](O)[C@@H]3O (some centres unmarked) [Compound 69]
- IC50 [2, 4]: 21.2 µM
- inhibition at 20 µM (Jurkat clone E6.1 cells; [5]): 11.2%

Compound: C[C@]12CC[C@@H](N)CC1[C@@H](O)[C@H](O)[C@@H]1[C@@H]2CC[C@]2(C)C(=O)CC[C@@H]12 (stereo partly drawn) [Compound 70, 3α-amino-6α,7β-dihydroxyandrostan-17-one acetic acid salt]
- inhibition at 20 µM (Jurkat clone E6.1 cells; read-out: Calcium (% inhibition at 20 μM), 20 μM): 7%

Compound: C[C@]12CCC3C(C1CCC2O)[C@@H](O)[C@H](O)C1CC(N)CC[C@]31C (some centres unmarked) [Compound 72]
- inhibition at 20 µM (Jurkat clone E6.1 cells; [5]): 10.3%

Compound: C=C1CCC2C3C(CC[C@]12C)[C@@]1(C)CCC(N)CC1[C@@H](OC)[C@@H]3OC (some centres unmarked) [Compound 78]
- IC50 [2, 4]: 20.1 µM
- inhibition at 20 µM (Jurkat clone E6.1 cells; [5]): 5.3%

Compound: CC(F)=C1CCC2C3C(CC[C@]12C)[C@@]1(C)CCC(N)CC1[C@@H](O)[C@@H]3O (some centres unmarked) [Compound 95]
- % inhibition of eosinophils [1, 3]: 14%

Compound: CCC1CCC2C3C(CC[C@]12C)[C@@]1(C)CCC(N)CC1[C@@H](O)[C@@H]3O (some centres unmarked) [Compound 97]
- % inhibition of eosinophils [1, 3]: 40%

Compound: C=C1CCC2C3C(CC[C@]12C)[C@@]1(C)CC[C@@H](NCc2ccc(C(C)C)cc2)CC1[C@@H](O)[C@@H]3O (some centres unmarked) [Compound 100]
- IC50 [2, 4]: 18.2 µM
- inhibition at 20 µM (Jurkat clone E6.1 cells; [5]): 33.2%

Compound: C=C1CCC2C3C(O)C(O)C4CC(NCc5cccc(C(F)(F)F)c5)CCC4(C)C3CCC12C.CC(=O)O (centres unmarked) [Compound 102]
- Calcium (% inhibition at 20 μM) (Jurkat clone E6.1 cells; 20 μM): 9.5%

Compound: C=C1CCC2C3C(O)C(O)C4CC(NCc5cccc([N+](=O)[O-])c5)CCC4(C)C3CCC12C (centres unmarked) [Compound 106]
- Calcium (% inhibition at 20 μM) (Jurkat clone E6.1 cells; 20 μM): 8.1%

Compound: C=C1CCC2C3C(O)C(O)C4CC(NCc5cccnc5)CCC4(C)C3CCC12C.Cl.Cl (centres unmarked) [Compound 107]
- % inhibition of lymphocytes ([1]; 1 mg/kg/day for 4 days): −28%
- % inhibition of neutrophils ([1]; 1 mg/kg/day for 4 days): 23%

Compound: C/C=C1/CCC2C3C(CC[C@]12C)[C@@]1(C)CCC(N2CCCCC2)CC1[C@@H](O)[C@@H]3O (some centres unmarked) [Compound 110]
- IC50 [2, 4]: 10.9 µM
- inhibition at 20 µM (Jurkat clone E6.1 cells; [5]): 39.7%

Compound: C/C=C1/CCC2C3C(CC[C@]12C)[C@@]1(C)CCC(NC)CC1[C@@H](O)[C@@H]3O (some centres unmarked) [Compound 113]
- IC50 [2, 4]: 9.8 µM
- inhibition at 20 µM (Jurkat clone E6.1 cells; [5]): 45%

Compound: CC=C1CCC2C3C(O)C(O)C4CC(NCCCCC)CCC4(C)C3CCC12C.Cl (centres unmarked) [Compound 115]
- Calcium (% inhibition at 20 μM) (Jurkat clone E6.1 cells; 20 μM): 40.0%

Compound: CC(=O)O.CC=C1CCC2C3C(O)C(O)C4CC(NC5CCCC5)CCC4(C)C3CCC12C (centres unmarked) [Compound 116]
- Calcium (% inhibition at 20 μM) (Jurkat clone E6.1 cells; 20 μM): 60.9%

Compound: CC=C1CCC2C3C(O)C(O)C4CC(NCCNCCC)CCC4(C)C3CCC12C (centres unmarked) [Compound 119]
- IC50 ([2]; inhibition of antigen (DNP-HSA)-induced hexosaminidase release): 6.1 µM

Compound: CC=C1CCC2C3C(O)C(O)C4CC(NCCN(C)C)CCC4(C)C3CCC12C.Cl.Cl (centres unmarked) [Compound 120]
- Calcium (% inhibition at 20 μM) (Jurkat clone E6.1 cells; 20 μM): 44.0%

Compound: CC=C1CCC2C3C(O)C(O)C4CC(NCCNCCO)CCC4(C)C3CCC12C.Cl.Cl (centres unmarked) [Compound 124]
- Calcium (% inhibition at 20 μM) (Jurkat clone E6.1 cells; 20 μM): 21.0%
- % inhibition of eosinophils ([1]; 1 mg/kg/day for 4 days): −55%
- % inhibition of lymphocytes ([1]; 1 mg/kg/day for 4 days): −26%
- % inhibition of neutrophils ([1]; 1 mg/kg/day for 4 days): −76%

Compound: CC=C1CCC2C3C(O)C(O)C4CC(Nc5cccc(C)c5)CCC4(C)C3CCC12C.Cl (centres unmarked) [Compound 125]
- Calcium (% inhibition at 20 μM) (Jurkat clone E6.1 cells; 20 μM): 5.7%

Compound: CC=C1CCC2C3C(O)C(O)C4CC(Nc5ccc(O)cc5)CCC4(C)C3CCC12C.Cl (centres unmarked) [Compound 126]
- Calcium (% inhibition at 20 μM) (Jurkat clone E6.1 cells; 20 μM): 45.0%

Compound: C=C1CCC2C3C(CC[C@]12C)[C@@]1(C)CC[C@@H](NC(C)=O)CC1[C@@H](O)[C@@H]3O (some centres unmarked) [Compound 131]
- IC50 [2, 4]: 14.1 µM
- inhibition at 20 µM (Jurkat clone E6.1 cells; [5]): 9.9%

Compound: C=C1CCC2C3C(CC[C@]12C)[C@@]1(C)CC[C@@H](NS(=O)(=O)C(C)C)CC1[C@@H](O)[C@@H]3O (some centres unmarked) [Compound 133]
- % inhibition of eosinophils ([1]; 1 mg/kg/day for 4 days): −43%
- % inhibition of lymphocytes ([1]; 1 mg/kg/day for 4 days): 28%
- % inhibition of neutrophils ([1]; 1 mg/kg/day for 4 days): 40%

Compound: C=C1CCC2C3C(CC[C@]12C)[C@@]1(C)CC[C@@H](NC(=O)Nc2ccccc2)CC1[C@@H](O)[C@@H]3O (some centres unmarked) [Compound 137]
- IC50 [2, 4]: 14.8 µM
- inhibition at 20 µM (Jurkat clone E6.1 cells; [5]): 13%

Compound: C=C1CCC2C3C(CC[C@]12C)[C@@]1(C)CC[C@@H](NC(=O)NCCC)CC1[C@@H](O)[C@@H]3O (some centres unmarked) [Compound 138]
- Calcium (% inhibition at 20 μM) (Jurkat clone E6.1 cells; 20 μM): 9.0%
- % inhibition of eosinophils ([1]; 1 mg/kg/day for 4 days): −52%
- % inhibition of lymphocytes ([1]; 1 mg/kg/day for 4 days): 33%
- % inhibition of neutrophils ([1]; 1 mg/kg/day for 4 days): 35%

Compound: COc1ccc(CNC2CCC3(C)C(C2)C(O)C(O)C2C4=C(CCC23)C(C)(C)CC4)cc1OC.Cl (centres unmarked) [Compound 142]
- % inhibition of lymphocytes ([1]; 1 mg/kg/day for 4 days): −42%
- % inhibition of neutrophils ([1]; 1 mg/kg/day for 4 days): −1%

Compound: CCC1(C)CCC2=C1CCC1C2C(O)C(O)C2CC(NCc3ccccc3)CCC21C.Cl (centres unmarked) [Compound 146]
- % inhibition of eosinophils ([1]; 1 mg/kg/day for 4 days): 8%
- % inhibition of lymphocytes ([1]; 1 mg/kg/day for 4 days): −27%
- % inhibition of neutrophils ([1]; 1 mg/kg/day for 4 days): 24%

Compound: CCC1(C)CCC2=C1CCC1C2C(O)C(O)C2CC(NCc3ccccc3)CCC21C.Cl (centres unmarked) [Compound 147]
- % inhibition of eosinophils ([1]; 1 mg/kg/day for 4 days): 40%
- % inhibition of lymphocytes ([1]; 1 mg/kg/day for 4 days): 36%
- % inhibition of neutrophils ([1]; 1 mg/kg/day for 4 days): 58%

Compound: COC1C(OC)C2CC(N)CCC2(C)C2CCC3=C(CCC3(C)C)C12.Cl (centres unmarked) [Compound 148]
- Calcium (% inhibition at 20 μM) (Jurkat clone E6.1 cells; 20 μM): 6.6%
